Measured values taken from patent publication US20160299149A1, “ASSAYS AND METHODS FOR CELL PROLIFERATION-TARGETED TREATMENT THERAPIES” (University of Central Florida Research Foundation, Inc., priority 2015, published 2016).

Assays:
[1] = tested on: L3.6pl, Panc1, CHO and PanO2 cells; assay: Cell line sensitivity to DFMO and spermidine rescue challenge; format: cell-based; conditions: cells dosed with IC50 dose of DFMO, spermidine 1 μM, read-out: viability level after rescue by exogenous spermidine
BxPC-3 [2] = assay: 3H Spd import Vmax, untreated cells; format: cell-based, human
Text: (§1) FIG. 10 is a table providing the Relative Protein expression of Cav-1, ATP13A3 and c-myc in human pancreatic cancer cell lines along with the respective Vmax values for ^3H spermidine (Spd) import and the relative affinity Km values determined for spermidine. Entries represent 100%×protein expression/beta actin expression as shown in FIG. 10 along with the Vmax value already provided. The Western blots were quantified by Image J software (NIH) and normalized by dividing by the beta-actin expression level for each cell line. Entries represent protein expression and are expressed in relative %, with the L3.6pl cell expression levels set to 100%.
(§2) FIG. 10 provides a table showing the relative protein expression of Cav-1, ATP13A3 and c-myc in human pancreatic cancer cell lines (normalized by dividing by the relative beta actin expression level) along with the respective Vmax values for ^3H Spd import and Km values. The entries represent 100%×protein expression/beta actin expression is shown in the table along with the Vmax and Km values reported earlier. As mentioned earlier, a strong correlation was found between ATP13A3 expression and the ability of DFMO-treated cells to be rescued by exogenous spermidine (FIG. 8, rightmost column).

Panc-1 [3] = assay: 3H Spd import Vmax, untreated cells; format: cell-based, human
Text: as §1, §2

HPNE [4] = assay: 3H Spd import Vmax, untreated cells; format: cell-based, human
Text: as §1, §2

Capan-1 [5] = assay: 3H Spd import Vmax, untreated cells; format: cell-based, human
Text: as §1, §2

L3.6pl [6] = assay: 3H Spd import Vmax, untreated cells; format: cell-based, human
Text: as §1, §2

AspC-1 [7] = assay: 3H Spd import Vmax, untreated cells; format: cell-based, human
Text: as §1, §2

SU86.86 [8] = assay: 3H Spd import Vmax, untreated cells; format: cell-based, human
Text: as §1, §2

[9] = Polyamine transport inhibitor assay 2: PTI blocks uptake of rescuing spermidine into DFMO-treated cells; format: cell-based; conditions: DFMO dosed at its IC50; Spd 1 μM; PTI not above its IC10; relative to untreated control; read-out: cell viability
Experimental: FIG. 6A is a diagram showing an assay wherein the uptake of rescuing dose of spermidine into DFMO-treated cells is blocked by a PTI (GW 5074).
(§3) DFMO was dosed to give 50% relative viability versus an untreated control, i.e. DFMO is dosed at its IC50 value. Exogenous spermidine (Spd, 1 μM) is added to the DFMO treated cells and provided significant rescue of these cells to >80% viability depending upon the cell line. A successful PTI was able to block the entry of the spermidine rescuing agent into DFMO treated cells and result in a cell viability near the DFMO control (i.e. 50% viability). The inventors identified the following cell viabilities: DFMO only (50%), Spd only (100%), PTI (>90%), DFMO+Spd (>80%), DFMO+Spd+PTI (50%). The PTI provides a dose dependent lowering of cell viability in the presence of DFMO and a rescuing dose of spermidine. […] Identifying cells that respond to exogenous spermidine allow this assay to be possible and the c-myc and ATP13A3 biomarkers help predict these outcomes as well as the Vmax measurements for ^3H Spd import.

BxPC-3 [10] = assay: Spermidine rescue of DFMO-treated cells; format: cell-based, human; conditions: DFMO-treated BxPC-3 cells
Experimental: (§4) FIG. 8 provides an illustration and a table showing different cell line sensitivity to DFMO and spermidine rescue challenge. The rescue challenge experiment doses cells with the respective IC50 dose of DFMO for that cell line and measures the viability of cells with and without added spermidine (1 μM). Cell lines without added spermidine give the expected 50% viability due to the presence of DFMO. […] These are highlighted in red. Cell lines with low polyamine transport activity are not rescued to a significant extent even though a rescuing dose of spermidine is available and give viabilities near 50%.
as §3

Panc-1 [11] = assay: Spermidine rescue of DFMO-treated cells; format: cell-based, human; conditions: DFMO-treated Panc-1 cells
Experimental: as §4, §3

HPNE [12] = assay: Spermidine rescue of DFMO-treated cells; format: cell-based, human
Experimental: as §4, §3

Capan-1 [13] = assay: Spermidine rescue of DFMO-treated cells; format: cell-based, human; conditions: DFMO-treated Capan-1 cells
Experimental: as §4, §3

L3.6pl [14] = assay: Spermidine rescue of DFMO-treated cells; format: cell-based, human; conditions: DFMO-treated L3.6pl cells
Experimental: as §4, §3

AspC-1 [15] = assay: Spermidine rescue of DFMO-treated cells; format: cell-based, human; conditions: DFMO-treated AspC-1 cells
Experimental: as §4, §3

SU86.86 [16] = assay: Spermidine rescue of DFMO-treated cells; format: cell-based, human; conditions: DFMO-treated SU86.86 cells
Experimental: as §4, §3

[17] = tested on: MALME-3M cells and MALME-3 control cells; assay: Spermidine competition / percent viability with compound A; format: cell-based; conditions: 100 μM; MALME-3M and MALME-3
Experimental: Aminoguanidine (AG) at 1 mM was determined to be non-toxic and was incubated with cells for 24 h prior to compound addition. Control represents the untreated cells. All experiments were performed in triplicate. Spermidine (Spd, 100 μM) was non-toxic to both cell lines. […] Compound A is a valid polyamine transport probe.

## NCCCCNCCCN [Spermidine, spermidine]
[1]
  viability at 1 μM: > 80%
BxPC-3 [2]
  Vmax of ^3H Spd untreated cells: 9.0 nmoles Spd/mg protein/min
Panc-1 [3]
  Vmax of ^3H Spd untreated cells: 13 nmoles Spd/mg protein/min
HPNE [4]
  Vmax of ^3H Spd untreated cells: 1.8 nmoles Spd/mg protein/min
Capan-1 [5]
  Vmax of ^3H Spd untreated cells: 0.8 nmoles Spd/mg protein/min
L3.6pl [6]
  Vmax of ^3H Spd untreated cells: 24 nmoles Spd/mg protein/min
AspC-1 [7]
  Vmax of ^3H Spd untreated cells: 2.3 nmoles Spd/mg protein/min
SU86.86 [8]
  Vmax of ^3H Spd untreated cells: 7.0 nmoles Spd/mg protein/min
[9]
  viability at 1 μM: 100%
BxPC-3 [10]
  Spd rescue index: low
Panc-1 [11]
  Spd rescue index: med
HPNE [12]
  Spd rescue index: very low
Capan-1 [13]
  Spd rescue index: Not rescuable
L3.6pl [14]
  Spd rescue index: high
AspC-1 [15]
  Spd rescue index: Not rescuable
SU86.86 [16]
  Spd rescue index: med
[17]
  toxicity to both cell lines: non-toxic
